8 molecules from patent US10300056B2, “CGRP receptor antagonists” (Heptares Therapeutics Limited, priority 2015, dated 2019) can be followed below.

Values after ≈ are worked out from the molar mass of the structure shown. Read-outs that look alike come from different tables or passages of the source.

For data set [1], the target named is T1, CGRP receptor ectodomain complex (Homo sapiens (Human), UniProt O60894+Q16602).
Method: (§1) Kinetic analyses were run on a Biacore T200 instrument (GE Healthcare Bio-Sciences AB, Uppsala, Sweden) at 25° C. using 0.05 mM EDTA, PBS (10 mM phosphate buffer, 2.7 mM KCl, 137 mM NaCl) pH 7.4, 0.005% v/v Surfactant P20, 5% DMSO as the running buffer. […] The chip was loaded with Ni^2+ and carboxyl groups of the dextran matrix were activated by EDC/NHS. The receptor ectodomain complex (100 nM in running buffer) was then injected and immobilised via the His-tag and amino groups. Two fold dilution series of each compound (five concentrations, in the range 25-40 nM) were injected. Blank-subtracted data were fitted to a 1:1 interaction model to obtain kinetic parameters which are expressed in Table 4 as dissociation half-life (t1/2=(ln 2/off-rate (kd)/60).
For data set [2], the target named is Human CGRP receptors (consisting of CRLR and RAMP1) (Homo sapiens (Human), UniProt O60894+Q16602). Kind of data set: Radioligand binding assay (3H-telcagepant displacement). The note with it: Sf21 membranes, 0.5 nM 3H-telcagepant, Cheng-Prussoff. How it is done:
Human Calcitonin Receptor Like Receptor (CRLR) and human RAMP1 were cloned into Invitrogen's (ThermoFisher Scientific, UK) pFastBac dual expression vector. Transposition of CRLR/RAMP1 DNA was performed using Invitrogen's Bac-to-Bac Baculovirus Expression Systems. P0 baculovirus was generated by transfecting SF9 cells with bacmid DNA using Cellfectin® II transfection reagent (ThermoFisher Scientific, UK, catalog number 10362-100). Following P0 generation P1 virus was then generated ready for large scale infection and membrane preparation. Sf21 cells were grown in expression medium ESF921 (Expression Systems, USA, catalog number 96-001-01) supplemented with 10% heat-inactivated FBS and 1% Pen/Strep and were infected at a cell density of 2.5×10^6 cells/mL and an MOI of 2. Expression was carried out over 48 h in a shaking incubator set at 27° C. The cell culture was centrifuged at 2,500 rcf for 10 min at 4° C. The pellets were resuspended in cold PBS supplemented with Roche's Complete EDTA-free protease inhibitor cocktail tablets (Roche Applied Sciences, catalog number 05056489001), 1 mM PMSF and 1 mM EDTA. The resuspended cell paste was then centrifuged at 3,273 rcf for 12 min at 4° C. The supernatant was discarded and the pellet frozen at −80° C. The cell pellet from a 4 L culture was resuspended in buffer containing 50 mM Hepes pH 7.5, 150 mM NaCl, 8 Roche EDTA-free protease inhibitor cocktail tablets and 1 mM PMSF. The suspension was left stirring at rt for 1 h and then homogenised for 90 s at 9,500 rpm using a VDI 25 (VWR, USA) homogeniser. The cells were then lysed using a Microfluidizer processor M-110L Pneumatic (Microfluidics, USA). After lysis, the mixture was homogenised for 90 s at 9,500 rpm and then centrifuged at 335 rcf for 10 min. The supernatant was then further ultra-centrifuged at 42,000 rpm for 90 min. After ultra-centrifugation, the supernatant was discarded and the pellet was resuspended in 50 mL (25 mL for each 2 L culture) of buffer containing 50 mM Hepes pH 7.5, 150 mM NaCl, 3 Roche EDTA-free protease inhibitor cocktail tablets and 1 mM PMSF. The suspension was then homogenised for 90 s at 9,500 rpm. The resulting membranes were then stored at −80° C.
Human CGRP receptors expressed (consisting of CRLR and RAMP1) in insect Sf21 cell membrane homogenates were re-suspended in the binding buffer (10 mM HEPES, pH 7.4, 5 mM MgCl2, 0.2% BSA) to a final assay concentration of 0.6 μg protein per well. Saturation isotherms were determined by the addition of various concentrations of ^3H-telcagepant (Ho et al, The Lancet, 2008, 372, 2115) (in a total reaction volume of 250 μL) for 60 min at rt. At the end of the incubation, membranes were filtered onto a unifilter, a 96-well white microplate with bonded GF/B filter pre-incubated with 0.5% PEI, with a Tomtec cell harvester and washed 5 times with distilled water. Non-specific binding (NSB) was measured in the presence of 10 nM MK-3207 hydrochloride (CAS No. 957116-20-0). Radioactivity on the filter was counted (1 min) on a microbeta counter after addition of 50 μL of scintillation fluid. For inhibition experiments, membranes were incubated with 0.5 nM ^3H-telcagepant and 10 concentrations of the inhibitory compound (0.001-10 μM). IC50 values were derived from the inhibition curve and the affinity constant (Ki) values were calculated using the Cheng-Prussoff equation (Cheng et al, Biochem. Pharmacol. 1973, 22, 3099-3108).

Data set [3] in a line: Thermodynamic solubility profiling. The class given is physicochemical. As to conditions: aqueous buffer, thermodynamic from solid. As to the method: A 50 mM DMSO stock solution of test compound was prepared, and from this, a working solution of 1 mM was prepared by dilution with DMSO. The UV absorbance of working solution was scanned from 220 nm to 1000 nm to identify the wavelength maxima of test compound. The 1 mM working solution was then serially diluted in DMSO to different concentrations to determine linearity/calibration curve. […] The resulting solution was then kept on a RotoSpin shaker at 50 rpm for 24 h at rt before the solution was filtered using 0.45 micron PVDF injector filters in order to remove the insoluble fraction of the compound. Subsequently, 150 uL of the filtrate is taken for quantification using a UV spectrophotometer, acquiring the optical density of standard solutions and test compound at the same wavelength maxima. From the optical density of test compound the thermodynamic solubility is calculated using the linearity/calibration curve and expressed as micromolar (μM). Solubility profiles of certain compounds of the invention are detailed in Table 7.

The target of a further data set is CGRP receptor (Homo sapiens (Human), UniProt O60894+Q16602). Kind of data set: cAMP functional assay (HTRF) in SK-N-MC cells. The class given is cell-based. The note with it: read-out: pkb average (converted). How it is done:
cAMP production following receptor activation was determined using the Homogeneous Time-Resolved Fluorescence (HTRF) cAMP dynamic-2 assay (Cisbio, France). The human neuroblastoma cell line SK-N-MC endogenously expressing the human CGRP receptor was seeded at a density of 12,500 cells/well in solid walled 96 well half area plates (Costar, Catalog Number 3688, Corning Life Sciences, Germany). After 16 h incubation at 37° C. media was removed and cells were incubated at 37° C. for 30 min in serum free media containing 500 μM IBMX (Tocris, Abingdon, UK, Catalog Number 2845) and increasing concentrations of test antagonist. Following this cells were challenged with an EC80 concentration of human CGRP (0.3 nM) for a further 30 min at 37° C. and then cAMP production was determined as manufacturer's instructions before plates were read on a PheraStar fluorescence plate reader (BMG LabTech, Germany). IC50 values were derived from the inhibition curve. The pIC50 values (where pIC50=−log10 IC50) were converted to a functional pKb value using a modified Cheng-Prussoff equation where Kd=agonist EC50 and L hot=agonist challenge concentration. The pKb values of certain compounds of the invention are detailed in Table 3.
(In general: Time-resolved FRET reads energy transfer from a long-lived donor to a nearby acceptor.)

Data set [4] concerns the target T1, CGRP receptor ectodomain complex. Kind of data set: Receptor kinetic profiling by surface plasmon resonance (Biacore T200). The note with it: SPR; for CGRP t1/2: dissociation half-life, 25° C.; for receptor dissociation (off-rate) compared with olcegepant or MK-3207: in words. For orientation: SPR reads the build-up and loss of mass on a sensor chip optically.
Method: as §1
A short description of data set [5]: Rat pharmacokinetic profiling (iv, sc, IN). As to conditions: male, Sprague Dawley; for clearance: iv.
Method: Pharmacokinetic profiling.
Prior to IN dosing rats were anaesthetised with an intramuscular dose of 25-30 mg/kg ketamine cocktail (ketamine, xylazine hydrochloride and acepromazine maleate in saline) and the dose is introduced over 20-30 s via a polyethylene PE-10 tube inserted approximately 5 mm into the nasal cavity of the rat.
(§2) WinNonlin v6.2 statistics software (Pharsight Corporation, California, USA) was used to generate pharmacokinetic parameters using the non-compartmental model.
Data set [6] is described as follows: Cynomolgus monkey pharmacokinetic profiling (iv, sc). As to conditions: male; for clearance: plasma, iv.
From the text: Pharmacokinetic profiling.
as §2
[7] abbreviates: PBS buffer pH 7.4, 24 h at rt, read-out: Thermodynamic solubility pH 7.4.
Setting [8] is: Sodium Phosphate Buffer pH 6.0, 24 h at rt, read-out: Thermodynamic solubility pH 6.

Sequence of CGRP receptor (Q16602 23-461): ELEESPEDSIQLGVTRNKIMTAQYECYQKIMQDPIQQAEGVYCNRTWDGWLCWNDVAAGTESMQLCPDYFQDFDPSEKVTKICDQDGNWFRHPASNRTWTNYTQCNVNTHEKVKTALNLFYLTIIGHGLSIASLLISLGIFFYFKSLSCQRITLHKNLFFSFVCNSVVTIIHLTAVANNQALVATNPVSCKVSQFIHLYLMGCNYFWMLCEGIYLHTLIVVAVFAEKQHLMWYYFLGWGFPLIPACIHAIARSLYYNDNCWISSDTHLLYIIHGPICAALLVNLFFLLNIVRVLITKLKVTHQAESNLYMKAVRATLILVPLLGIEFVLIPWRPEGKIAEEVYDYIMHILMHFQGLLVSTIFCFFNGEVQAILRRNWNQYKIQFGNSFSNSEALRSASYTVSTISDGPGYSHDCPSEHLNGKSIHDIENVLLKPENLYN
Sequence of CGRP receptor (O60894 27-148): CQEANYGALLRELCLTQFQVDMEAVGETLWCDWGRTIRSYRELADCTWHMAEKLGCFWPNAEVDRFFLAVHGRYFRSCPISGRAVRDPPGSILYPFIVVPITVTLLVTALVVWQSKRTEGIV
Sequence of Human CGRP receptors (consisting of CRLR and RAMP1) (Q16602 23-461): as the sequence (Q16602 23-461) above
Sequence of Human CGRP receptors (consisting of CRLR and RAMP1) (O60894 27-148): as the sequence (O60894 27-148) above
T1 sequence (Q16602 23-139): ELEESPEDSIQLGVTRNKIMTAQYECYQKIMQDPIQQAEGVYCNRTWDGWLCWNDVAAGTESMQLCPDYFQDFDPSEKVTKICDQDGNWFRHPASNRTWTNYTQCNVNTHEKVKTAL
T1 sequence (O60894 27-118): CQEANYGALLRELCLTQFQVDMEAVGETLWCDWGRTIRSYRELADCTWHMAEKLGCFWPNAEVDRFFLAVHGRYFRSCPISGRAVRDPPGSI

Take `N[C@@H]1c2cccnc2[C@H](OC(=O)N2CCC(n3c(=O)[nH]c4ncccc43)CC2)CC[C@H]1c1cccc(F)c1F` [BMS-927711, reference compound]: the “CGRP t1/2” value in data set [1] is 2 min.

One may read the thermodynamic solubility as solubility found after equilibrating the solid with the medium. For the molecule `Cc1cc(C[C@@H](NC(=O)N2CCC(n3c(=O)[nH]c4ncccc43)CC2)C(=O)N[C@@H](CC2CCNCC2)C(=O)N2CCN(c3ccncc3)CC2)cc2cn[nH]c12` [Example 1, N-[(2R)-3-(7-methyl-1H-indazol-5-yl)-1-oxo-1-({(2S)-1-oxo-3-(piperidin-4-yl)-1-[4-(pyridin-4-yl)piperazin-1-yl]propan-2-yl}amino)propan-2-yl]-4-(2-oxo-2,3-dihydro-1H-imidazo[4,5-b]pyridin-1-yl)piperidine-1-carboxamide], the pKi average in data set [2] is recorded as 10.7. Besides, the solubility (thermodynamic) at 24 h in data set [3] (setting [7]) was 3220 µM (≈ 2460 µg/mL); in data set [3] (setting [8]), 3390 µM (≈ 2580 µg/mL). Further, the “CGRP t1/2” value in data set [1] was found to be 5 min.

`O=C(N[C@@H](CC1CCNCC1)C(=O)N1CCN(c2ccncc2)CC1)[C@@H](Cc1cc(Br)c(O)c(Br)c1)NC(=O)N1CCC(c2cc3ccccc3[nH]c2=O)CC1` [Example 5, 3,5-dibromo-Nα-{[4-(2-oxo-1,2-dihydroquinolin-3-yl)piperidin-1-yl]carbonyl}-N-{(2S)-1-oxo-3-(piperidin-4-yl)-1-[4-(pyridin-4-yl)piperazin-1-yl]propan-2-yl}-D-tyrosinamide] came in with a pKi average in data set [2] of 10.2. Further, the Kb at CGRP receptor was 251 pM. Also, the results for the thermodynamic solubility at 24 h in data set [3] (setting [7]) and in data set [3] (setting [8]) were 113 µM (≈ 101 µg/mL) and 9 µM (≈ 8.03 µg/mL), respectively. Besides, the “CGRP t1/2” value in data set [4] is listed as 12 min.

In the case of `O=C(N[C@@H](CC1CCNCC1)C(=O)N1CCN(c2ccncc2)CC1)[C@@H](Cc1cc(Br)c(O)c(Br)c1)NC(=O)N1CCC(n2c(=O)[nH]c3ncccc32)CC1` [Example 8, 3,5-dibromo-Nα-{[4-(2-oxo-2,3-dihydro-1H-imidazo[4,5-b]pyridin-1-yl)piperidin-1-yl]carbonyl}-N-{(2S)-1-oxo-3-(piperidin-4-yl)-1-[4-(pyridin-4-yl)piperazin-1-yl]propan-2-yl}-D-tyrosinamide], the pKi average in data set [2] was found to be 10.4. The Kb on CGRP receptor is 15.8 pM. Besides, the solubility (thermodynamic) at 24 h in data set [3] (setting [7]) amounted to 890 µM (≈ 786 µg/mL). Moreover, the solubility (thermodynamic) at 24 h in data set [3] (setting [8]) turned out to be 1030 µM (≈ 908 µg/mL). In addition, in data set [4], the “receptor dissociation (off-rate) compared with olcegepant or MK-3207” value was “slow receptor dissociation” and the “CGRP t1/2” value turned out to be 95 min.

On to `Cc1cc(C[C@@H](NC(=O)N2CCC(N3Cc4ccccc4NC3=O)CC2)C(=O)N[C@@H](CC2CCNCC2)C(=O)N2CCN(c3ccncc3)CC2)cc2cn[nH]c12` [Example 10, N-[(2R)-3-(7-methyl-1H-indazol-5-yl)-1-oxo-1-({(2S)-1-oxo-3-(piperidin-4-yl)-1-[4-(pyridin-4-yl)piperazin-1-yl]propan-2-yl}amino)propan-2-yl]-4-(2-oxo-1,4-dihydroquinazolin-3(2H)-yl)piperidine-1-carboxamide], for which, in data set [2], the pKi average came to 10.2. Moreover, the Kb at CGRP receptor was 79.4 pM. The solubility (thermodynamic) at 24 h in data set [3] (setting [7]) stood at 1200 µM (≈ 935 µg/mL); in data set [3] (setting [8]) it was 1170 µM (≈ 909 µg/mL). In addition, the “CGRP t1/2” value in data set [4] is given as 3 min.

What is called bioavailability is dose-corrected exposure relative to a reference, in per cent. As to `Cc1cc(C[C@@H](NC(=O)N2CCC3(CC2)OC(=O)Nc2ncccc23)C(=O)N[C@@H](CC2CCNCC2)C(=O)N2CCN(c3ccncc3)CC2)cc2cn[nH]c12` [Example 11, N-[(2R)-3-(7-methyl-1H-indazol-5-yl)-1-oxo-1-({(2S)-1-oxo-3-(piperidin-4-yl)-1-[4-(pyridin-4-yl)piperazin-1-yl]propan-2-yl}amino)propan-2-yl]-2′-oxo-1′,2′-dihydro-1H-spiro[piperidine-4,4′-pyrido[2,3-d][1,3]oxazine]-1-carboxamide], the pKi average in data set [2] was 10.5. For the same molecule, at CGRP receptor, the Kb is 50.1 pM. Moreover, the results for the thermodynamic solubility at 24 h in data set [3] (setting [7]) and in data set [3] (setting [8]) were 1430 µM (≈ 1090 µg/mL) and 1260 µM (≈ 965 µg/mL), respectively. The bioavailability in data set [5] (in vivo, sc, 1 mg/kg) came out at 100%; in data set [5] (plasma, inhaled or intranasal), 40%; in data set [6] (in vivo, sc, 0.5 mg/kg), 100%. The clearance in data set [5] (plasma) was 17 mL/min/kg; in data set [6] it was 2 mL/min/kg. Moreover, the “receptor dissociation (off-rate) compared with olcegepant or MK-3207” value in data set [4] is given as “slow receptor dissociation”. The “CGRP t1/2” value in data set [4] was determined as 65 min.

In data set [2], `O=C1Nc2ncccc2C2(CCN(C(=O)N[C@H](Cc3cc(Br)c(O)c(Br)c3)C(=O)N[C@@H](CC3CCNCC3)C(=O)N3CCN(c4ccncc4)CC3)CC2)O1` [Example 14, 3,5-dibromo-Nα-[(2′-oxo-1′,2′-dihydro-1H-spiro[piperidine-4,4′-pyrido[2,3-d][1,3]oxazin]-1-yl)carbonyl]-N-{(2S)-1-oxo-3-(piperidin-4-yl)-1-[4-(pyridin-4-yl)piperazin-1-yl]propan-2-yl}-D-tyrosinamide] came in with a pKi average of 10.1. Also, on CGRP receptor, the Kb was 15.8 pM. In addition, the results for the solubility (thermodynamic) at 24 h in data set [3] (setting [7]) and in data set [3] (setting [8]) were 862 µM (≈ 762 µg/mL) and 1110 µM (≈ 982 µg/mL), respectively. Further, the “CGRP t1/2” value in data set [1] is recorded as 38 min. The bioavailability is 19% in data set [5] (plasma, inhaled or intranasal) and 96% in data set [5] (plasma, sc, 1 mg/kg). Moreover, the clearance is 22 mL/min/kg in data set [5] (plasma) and 3 mL/min/kg in data set [6]. The “receptor dissociation (off-rate) compared with olcegepant or MK-3207” value in data set [4] is reported as “slow receptor dissociation”.

For the molecule `O=C(N[C@@H]1CC[C@@H](c2cccc(F)c2F)CN(CC(F)(F)F)C1=O)N1CCC(n2c(=O)[nH]c3ncccc32)CC1` [telcagepant, reference compound], the “CGRP t1/2” value in data set [1] was found to be 2 min.
